Paper PMC12472302, “Discovery of a Promising Hydroxyamino-Piperidine HDAC6 Inhibitor via Integrated Virtual Screening and Experimental Validation in Multiple Myeloma” (Pharmaceuticals, 2025)
Where two headings read alike, the source gives them in different places.

What was measured:
HDAC6 [1] = conditions: cited from earlier work
HDAC6 [2] = conditions: cited from earlier work; remark: listed apart in the source
[3] = molecular target: T1, HDAC6 human recombinant enzyme (Homo sapiens, UniProt Q9UBN7); assay: Fluorogenic HDAC6 inhibition assay (BPS Bioscience kit); format: biochemical; conditions: mean ± SD, three independent experiments
T1 sequence (Q9UBN7 1-1215): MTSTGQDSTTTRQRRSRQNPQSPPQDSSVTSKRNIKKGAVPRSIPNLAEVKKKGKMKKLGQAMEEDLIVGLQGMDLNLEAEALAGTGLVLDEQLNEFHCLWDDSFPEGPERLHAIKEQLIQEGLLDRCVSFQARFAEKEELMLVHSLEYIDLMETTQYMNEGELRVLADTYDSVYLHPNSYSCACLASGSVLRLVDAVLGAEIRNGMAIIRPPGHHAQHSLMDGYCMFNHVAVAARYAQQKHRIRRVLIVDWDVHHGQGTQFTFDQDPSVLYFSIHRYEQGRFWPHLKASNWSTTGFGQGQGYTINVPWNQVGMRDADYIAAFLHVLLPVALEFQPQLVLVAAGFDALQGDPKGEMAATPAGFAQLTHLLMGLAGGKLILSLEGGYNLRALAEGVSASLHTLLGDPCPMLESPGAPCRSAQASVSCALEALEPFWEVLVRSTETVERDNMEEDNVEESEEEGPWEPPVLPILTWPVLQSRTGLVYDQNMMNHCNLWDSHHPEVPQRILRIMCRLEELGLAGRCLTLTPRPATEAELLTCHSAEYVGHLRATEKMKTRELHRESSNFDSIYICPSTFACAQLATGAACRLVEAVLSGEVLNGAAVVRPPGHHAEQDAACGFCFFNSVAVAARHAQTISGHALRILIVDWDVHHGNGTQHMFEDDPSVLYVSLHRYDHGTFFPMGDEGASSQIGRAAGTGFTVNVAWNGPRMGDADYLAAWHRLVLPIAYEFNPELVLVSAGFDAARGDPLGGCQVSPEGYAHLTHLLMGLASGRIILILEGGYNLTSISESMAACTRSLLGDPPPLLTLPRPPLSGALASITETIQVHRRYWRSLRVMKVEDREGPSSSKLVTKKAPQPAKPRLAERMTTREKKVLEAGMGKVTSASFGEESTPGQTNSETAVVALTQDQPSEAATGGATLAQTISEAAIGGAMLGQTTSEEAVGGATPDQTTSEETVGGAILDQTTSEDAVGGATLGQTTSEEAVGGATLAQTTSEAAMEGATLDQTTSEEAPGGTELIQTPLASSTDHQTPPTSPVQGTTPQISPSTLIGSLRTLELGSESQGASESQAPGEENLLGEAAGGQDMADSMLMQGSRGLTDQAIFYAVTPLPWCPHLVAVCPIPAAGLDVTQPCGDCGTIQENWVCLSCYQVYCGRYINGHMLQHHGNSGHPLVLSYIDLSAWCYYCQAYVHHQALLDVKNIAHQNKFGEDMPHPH

[4] = tested on: healthy peripheral blood mononuclear cells (PBMCs); assay: CellTiter-Glo cell viability, healthy PBMCs; format: cell-based; conditions: 72 h
Experimental: (§1) The MM cell lines used in this study were: AMO, AMO-BZB, NCI-H929 and NCI-H929-BZB. AMO and AMO-BZB cells were provided by Dr. C. Driessen (University of Tubingen, Tübingen, Germany). The NCI-H929 cell line was purchased from DSMZ (Braunschweig, Germany). Bortezomib (BZB)-resistant NCI-H929 cells were selected by incubation with increasing concentrations of the drug. Human MM cell lines were cultured in RPMI-1640 medium (Corning, Turin, Italy) supplemented with 10% of heat-inactivated fetal bovine serum (FBS) (Gibco®, Life Technologies, Carlsbad, CA, USA), 100 U/mL of Penicillin and 100 µg/mL of Streptomycin (P/S) (Gibco®, Life Technologies, Carlsbad, CA, USA) and incubated at 37 °C in a 5% CO2 atmosphere. Peripheral blood mononuclear cells (PBMCs) were isolated by Ficoll-hypaque (Lonza Group, Basel, Switzerland) from healthy donors, following informed consent and Institutional Review Board (University of Catanzaro, Catanzaro, Italy) approval (institutional approval: n.266/2021). […]
(§2) Cell viability was assessed using the CellTiter-Glo (CTG) assay kit (Promega, Madison, WI, USA), as reported. […] Luminescence was measured using the GloMax-Multi Detection System (Promega, Madison, WI, USA).

293T cells = assay: CellTiter-Glo cell viability, 293T; format: cell-based; conditions: 72 h
acetylated α-tubulin = assay: Western blot of acetylated α-tubulin in MM cell lines; format: cell-based, human; conditions: AMO and AMO-BZB
Experimental: (§3) Total protein extracts were prepared using NP-40 Cell Lysis Buffer supplemented with Halt™ Protease Inhibitor Cocktail (Thermo Fisher Scientific, Waltham, MA, USA), as reported.
(§4) Protein samples (30 µg per lane) were resolved on 10% SDS-PAGE gels and subsequently transferred onto nitrocellulose membranes using the Trans-Blot Turbo Transfer System (Bio-Rad Laboratories, Hercules, CA, USA). Membranes were then blocked and incubated with the following primary antibodies: acetylated-α Tubulin (#sc-23950; Santa Cruz Biotechnology, Dallas, TX, USA), acetylated-histone H4 (#sc-34263; Santa Cruz Biotechnology) or histone H4 (#AB5823; abcam). GAPDH (MA5-15738; Thermo Fisher Scientific, Waltham, MA, USA) was used as loading control. Protein bands were visualized using the Clarity Western ECL Substrate (Bio-Rad Laboratories, Hercules, CA, USA), and chemiluminescence signals were quantified using the UVITEC Imaging System (Cleaver Scientific, Warwickshire, UK).

H929-BZB cells = assay: CellTiter-Glo cell viability, H929-BZB; format: cell-based; conditions: Homo sapiens; H929-BZB (bortezomib-resistant), 72 h, mean ± SD
Experimental: as §1, §2

AMO cells = assay: CellTiter-Glo cell viability, AMO; format: cell-based; conditions: Homo sapiens, 72 h, mean ± SD
Experimental: as §1, §2

histone H4 acetylation = assay: Western blot of acetylated histone H4 in AMO cells; format: cell-based, human; conditions: 72 h
Experimental: as §3, §4

AMO-BZB cells = assay: CellTiter-Glo cell viability, AMO-BZB; format: cell-based; conditions: Homo sapiens; AMO-BZB (bortezomib-resistant), 72 h, mean ± SD
Experimental: as §1, §2

H929 cells = assay: CellTiter-Glo cell viability, H929; format: cell-based; conditions: Homo sapiens, NCI-H929; H929, 72 h, mean ± SD
Experimental: as §1, §2

[5] = Table S1, ref DOI 10.1039/D2RA01753A

For `Nc1n[nH]c(-c2cc(Cc3ccc(C(=O)NO)cc3)ccc2NC(=O)Cc2ccc3c(c2)OCO3)n1`, the IC50 (HDAC6 [1]; [5]) is given as 0.1 nM.
In the case of `O=C(CCCCCCC[C@H]1C(=O)[C@H]2CCC(=O)N2Cc2ccccc21)NO`, the IC50 (HDAC6 [1]) is listed as 21.4 nM.
In the case of `CN(C)c1ccc(C(=O)N2CCC(n3cc(C(=O)NCCCCCC(=O)NO)nn3)CC2)cc1`, the IC50 (HDAC6 [1]) is given as 11.5 nM.
In the case of `O=C(CCCCCNC(=O)c1cn(C2CCN(S(=O)(=O)c3ccc4ccccc4c3)CC2)nn1)NO`, the IC50 (HDAC6 [1]) is listed as 8.6 nM.
In the case of `O=C(CCCCCNC(=O)c1cn(Cc2ccc(NS(=O)(=O)c3ccc(Br)cc3)cc2)nn1)NO`, the IC50 (HDAC6 [1]) is listed as 8.4 nM.
For `COc1ccc(-c2ncc(C(=O)NCCCCCC(=O)NO)s2)c(OC)c1`, the IC50 (HDAC6 [1]) is listed as 31 nM.
For `COc1ccc(C(=O)NC2CCN(C(=O)Nc3ccc(/C=C/C(=O)NO)cc3)CC2)cc1`, the IC50 (HDAC6 [1]) is listed as 12.3 nM.
In the case of `C=CCC.CC[C@@H]1NC(=O)CN(Cc2ccc(C(=O)NO)cc2)C1=O`, the IC50 (HDAC6 [1]) is given as 0.73 nM.
In the case of `O=C(NO)c1ccc(CN2CC(=O)N(Cc3ccccc3)[C@H](Cc3ccccc3)C2=O)cc1`, the IC50 (HDAC6 [1]) is given as 9.83 nM.
In the case of `O=C(NO)c1ccc(CN2C(=O)[C@@H](Cc3ccccc3)N(Cc3cccnc3)C2=O)cc1`, the IC50 (HDAC6 [1]) is given as 2.1 nM.
In the case of `O=C(NO)c1ccc(CN2c3ccccc3Sc3cccnc32)cc1`, the IC50 (HDAC6 [1]; Table S1, ref PMID 30645113) is given as 5 nM.
In the case of `NCc1ccc(NC(=O)N(CCCCO)Cc2ccc(C(=O)NO)cc2)cc1`, the IC50 (HDAC6 [1]; Table S1, ref PMID 32815366) is listed as 0.4 nM.
In the case of `O=C(NO)c1ccc(CN(Cc2nnnn2Cc2ccccc2)C(=O)c2ccccc2C(F)(F)F)cc1`, the IC50 (HDAC6 [1]; Table S1, ref PMID 32803970) is given as 30 nM.
In the case of `CCCON(Cc1ccc(C(=O)NO)cc1)C(=O)Nc1cc(C)cc(C)c1`, the IC50 (HDAC6 [1]) is given as 14 nM.
In the case of `O=C(NO)c1ccc(CN(Cc2cccnc2)S(=O)(=O)c2cc(F)c(F)c(F)c2F)cc1`, the IC50 (HDAC6 [1]; Table S1, ref PMID 33576627) is listed as 2.1 nM.
In the case of `O=C(NO)c1ccc(COC(=O)N2CCC3(CC2)CN(Cc2ccccc2)c2ccccc23)cc1`, the IC50 (HDAC6 [1]) is given as 48.5 nM.
In the case of `CCN(CC)Cc1ccc(Cn2c(=O)c(OCc3ccc(C(=O)NO)cc3)c(-c3ccccc3)c3ccccc32)cc1`, the IC50 (HDAC6 [1]; Table S1, ref PMID 33199154) is listed as 6.9 nM.
For `Nc1nc2c3ccc(Cc4ccc(C(=O)NO)cc4)cc3nc(Cc3ccc4c(c3)OCO4)n2n1`, the IC50 (HDAC6 [1]; [5]) is listed as 0.5 nM.
In the case of `O=C(NO)c1ccc(Cn2c(=O)n(CCc3ccccc3)c(=O)c3ccccc32)cc1`, the IC50 (HDAC6 [1]) is listed as 4 nM.
For `O=C(NO)c1ccc(N2C(=O)/C(=C3\Nc4ccccc4\C3=N/O)c3ccccc32)cc1`, the IC50 (HDAC6 [1]; Table S1, ref PMID 32916298) is given as 7 nM.
For `O=C(Cc1cccc2ccccc12)C[C@@H](Cc1ccccc1)C(=O)NO`, the IC50 (HDAC6 [1]) is listed as 88 nM.
In the case of `O=C(CCCCCCNC(=O)c1cnc(N(c2ccccc2)c2ccccc2Cl)nc1)NO` [ACY-241], the selectivity ratio (HDAC6 [2]) is given as roughly 10.
Molecule `CC(C)Oc1ccc(-c2csc(NC(=O)c3ncn[nH]3)n2)cc1` [Compound 9] has an IC50 [3] greater than 25000 nM.
For `O=C(CCC=C1CCN(C(=O)OCc2ccccc2)CC1)NO` [Compound 10, benzyl 4-[4-(hydroxyamino)-4-oxobutylidene]piperidine-1-carboxylate], the “effect on viability of healthy PBMCs” value [4] was “negligible effects”, the “effect on viability of non-transformed cells” value (293T cells) was “negligible effects” and the “acetylated α-tubulin levels” value (acetylated α-tubulin; 72 h after treatment) was “marked increase”. For the same molecule, the IC50 (H929-BZB cells) was 30400 nM, the IC50 (AMO cells) was 13200 nM and the “impact on histone H4 acetylation” value (histone H4 acetylation) was “moderate”. The IC50 [3] was 1690 ± 420 nM, the IC50 (AMO-BZB cells) was 48600 nM and the IC50 (H929 cells) was 18000 nM.
For `COC(=O)c1ccc2ccccc2c1OCCCCCCCC(=O)NO` [ONC(=O)CCCCCCCOc1c(C(=O)OC)ccc(c12)cccc2], the IC50 (HDAC6 [1]; Table S1, ref PMID 31223439) is listed as 95 nM.
In the case of `O=C(NO)c1ccc(CNc2ncnc3[nH]ccc23)cc1` [ONC(=O)c1ccc(cc1)CNc2ncnc(c23)[nH]cc3], the IC50 (HDAC6 [1]) is listed as 10 nM.
For ACY-1215, the “acetylated α-tubulin levels” value (acetylated α-tubulin; 48 h after treatment) was “marked increase”.
